18 molecules from patent publication US20230025510A1, “BIARYL ETHER-TYPE QUINAZOLINE DERIVATIVES” (DAIICHI SANKYO COMPANY, LIMITED, priority 2018, published 2023) can be followed below.

Holding throughout (format): cell-based
Assay [1] concerns Ba/F3-Mock cells. The assay can be described thus: Cell proliferation suppression test (CellTiter-Glo, GI50), Ba/F3-Mock. Particulars: Mus musculus, BaF3, 72 h, 5 ng/mL IL-3, 3 days, N=4. The protocol: (§1) Cell proliferation suppression test Ba/F3-Mock, Ba/F3-EGFR WT, Ba/F3-EGFR ins. ASV, and Ba/F3-EGFR ins. SVD cell lines were cultured based on a culture medium of 10% FBS-containing RPMI 1640 supplemented with 1.5 ug/mL puromycin, and 5 ng/mL IL-3 and 100 ng/mL of EGF were further added to the culture solution for Ba/F3-Mock and Ba/F3-EGFR WT, respectively. The cells were cultured in a CO2 incubator set at 37° C., 5% CO2. Specimens prepared by dilution were seeded into 384-well tissue culture plates with Echo555 (Labcyte Inc.), and the cells were seeded thereto at 400 cells/well for Ba/F3-Mock, Ba/F3-EGFR WT, and Ba/F3-EGFR ins. SVD and at 200 cells/well for Ba/F3-EGFR ins. ASV (day 0), then they were cultured for an additional 3 days. On the day of the compound addition (day 0) and 3 days after the compound addition (day 3), ATP quantity was measured with CellTiter-Glo (registered trademark) 2.0 (Promega Corporation.), and used as an indicator of cell quantity (N=4). In the test, puromycin-free culture medium was used. Concentrations at which cell proliferation from day 0 to day 3 was inhibited by 50% (GIso) were calculated with EXCEL.
(Cellular ATP, detected with luciferase, serves as a proxy for viable cell number.)

The subject of assay [2] is Ba/F3-EGFR WT cells. As to the kind of experiment: Cell proliferation suppression test (CellTiter-Glo, GI50), Ba/F3-EGFR WT. Particulars: Mus musculus, 72 h, 100 ng/mL EGF, 3 days, N=4. On the procedure: as §1
For assay [3], the system named is Ba/F3-EGFR ins. ASV cells. As to the kind of experiment: Cell proliferation suppression test (CellTiter-Glo, GI50), Ba/F3-EGFR ins. ASV. Particulars: Mus musculus, 72 h, 3 days, N=4. On the procedure:
as §1

Assay [4] concerns Ba/F3-EGFR ins. SVD cells. As to the kind of experiment: Cell proliferation suppression test (CellTiter-Glo, GI50), Ba/F3-EGFR ins. SVD. Particulars: Mus musculus, 72 h, 3 days, N=4. On the procedure: as §1

As a reminder, the GI50 is the concentration that inhibits growth by half. A low value points to more potent growth inhibition. As to `COc1cc2ncnc(Nc3ccc(Oc4nn(CC(=O)NC(C)(C)C)cc4F)cc3Cl)c2cc1NC(=O)/C=C/CN1CCC(F)C1` (racemic) [Example 55, rac-(2E)-N-{4-[4-({1-[2-(tert-Butylamino)-2-oxoethyl]-4-fluoro-1H-pyrazol-3-yl}oxy)-2-chloroanilino]-7-methoxyquinazolin-6-yl}-4-(3-fluoropyrrolidin-1-yl)but-2-enamide], the GI50 in assay [1] is 4290 nM; in assay [2] it was 441 nM; in assay [3], 12.9 nM; in assay [4], 10.3 nM.

Turning to `COc1cc2ncnc(Nc3ccc(Oc4nn(CC(=O)NC(C)(C)C)cc4F)cc3F)c2cc1NC(=O)/C=C/CN1CCC(F)C1` (racemic) [Example 58, rac-(2E)-N-{4-[4-({1-[2-(tert-Butylamino)-2-oxoethyl]-4-fluoro-1H-pyrazol-3-yl}oxy)-2-fluoroanilino]-7-methoxyquinazolin-6-yl}-4-(3-fluoropyrrolidin-1-yl)but-2-enamide], the 50% growth inhibitory concentration (GI50) in assay [1] is 4010 nM; in assay [2], 252 nM; in assay [3], 10.3 nM; in assay [4], 6.7 nM.

In the case of `C=CC(=O)N1CCC(Oc2cc3c(Nc4ccc(Oc5cccc(C(=O)NC(C)(C)C)c5)cc4F)ncnc3cc2OC)CC1` [Example 1, N-tert-Butyl-3-{3-fluoro-4-[(7-methoxy-6-{[1-(prop-2-enoyl)piperidin-4-yl]oxy}quinazolin-4-yl)amino]phenoxy}benzamide], the GI50 worked out at 7900 nM in assay [1], 115 nM in assay [2], 15.5 nM in assay [3] and 8.9 nM in assay [4].

Turning to `C=CC(=O)N1CCC(Oc2cc3c(Nc4ccc(Oc5cccc(-c6cn(C)nn6)c5)cc4F)ncnc3cc2OC)CC1` [Example 2], the GI50 in assay [1] was 9530 nM; in assay [2], 123 nM; in assay [3], 13.9 nM; in assay [4], 13.7 nM.

For the molecule `C=CC(=O)N1CCC(Oc2cc3c(Nc4ccc(Oc5cccc(-c6cn(C)nn6)c5)cc4Cl)ncnc3cc2OC)CC1` [Example 3, 1-{4-[(4-{2-Chloro-4-[3-(1-methyl-1H-1,2,3-triazol-4-yl)phenoxy]anilino}-7-methoxyquinazolin-6-yl)oxy]piperidin-1-yl}prop-2-en-1-one], the GI50 turned out to be 9930 nM in assay [1], 370 nM in assay [2], 40.6 nM in assay [3] and 30 nM in assay [4].

For the molecule `C=CC(=O)N1CCC(Oc2cc3c(Nc4ccc(Oc5ccn(C(=O)NC(C)(C)C)n5)cc4F)ncnc3cc2OC)CC1` [Example 4, N-tert-Butyl-3-{3-fluoro-4-[(7-methoxy-6-{[1-(prop-2-enoyl)piperidin-4-yl]oxy}quinazolin-4-yl)amino]phenoxy}-1H-pyrazole-1-carboxamide], the GI50 stood at 7610 nM in assay [1], 78.3 nM in assay [2], 7.4 nM in assay [3] and 5 nM in assay [4].

Take `C=CC(=O)N1CCC(Oc2cc3c(Nc4ccc(Oc5ccn(C(=O)NC(C)(C)CF)n5)cc4F)ncnc3cc2OC)CC1` [Example 5, 3-{3-Fluoro-4-[(7-methoxy-6-{[1-(prop-2-enoyl)piperidin-4-yl]oxy}quinazolin-4-yl)amino]phenoxy}-N-(1-fluoro-2-methylpropan-2-yl)-1H-pyrazole-1-carboxamide]: the GI50 in assay [1] is greater than 10000 nM; in assay [2], 77.1 nM; in assay [3], 5.4 nM; in assay [4], 4.3 nM.

With `C=CC(=O)N1CCC(Oc2cc3c(Nc4ccc(Oc5ccn(C(=O)NC(C)C)n5)cc4F)ncnc3cc2OC)CC1` [Example 6, 3-{3-Fluoro-4-[(7-methoxy-6-{[1-(prop-2-enoyl)piperidin-4-yl]oxy}quinazolin-4-yl)amino]phenoxy}-N-(propan-2-yl)-1H-pyrazole-1-carboxamide], the GI50 in assay [1] was determined as 5660 nM; in assay [2], 175 nM; in assay [3], 19.2 nM; in assay [4], 19.2 nM.

As for `C=CC(=O)N1CCC(Oc2cc3c(Nc4cc(F)c(Oc5ccn(C(=O)NC(C)(C)C)n5)cc4F)ncnc3cc2OC)CC1` [Example 7, N-tert-Butyl-3-{2,5-difluoro-4-[(7-methoxy-6-{[1-(prop-2-enoyl)piperidin-4-yl]oxy}quinazolin-4-yl)amino]phenoxy}-1H-pyrazole-1-carboxamide], the GI50 in assay [1] is 5900 nM; in assay [2], 191 nM; in assay [3], 39.4 nM; in assay [4], 19.6 nM.

For the molecule `C=CC(=O)N1CCC(Oc2cc3c(Nc4ccc(Oc5ccn(C(=O)NC6(C)CC6)n5)cc4F)ncnc3cc2OC)CC1` [Example 8, 3-{3-Fluoro-4-[(7-methoxy-6-{[1-(prop-2-enoyl)piperidin-4-yl]oxy}quinazolin-4-yl)amino]phenoxy}-N-(1-methylcyclopropyl)-1H-pyrazole-1-carboxamide], the GI50 in assay [1] was 7160 nM; in assay [2] it was 172 nM; in assay [3], 19.8 nM; in assay [4] it was 19.7 nM.

Turning to `C=CC(=O)N1CCC(Oc2cc3c(Nc4ccc(Oc5ccn(-c6ccnc(OC)c6)n5)cc4F)ncnc3cc2OC)CC1` [Example 9, 1-(4-{[4-(2-Fluoro-4-{[1-(2-methoxypyridin-4-yl)-1H-pyrazol-3-yl]oxy}anilino)-7-methoxyquinazolin-6-yl]oxy}piperidin-1-yl)prop-2-en-1-one], the GI50 in assay [1] came to 9590 nM; in assay [2] it was 280 nM; in assay [3], 17.1 nM; in assay [4], 15.3 nM.

In the case of `C=CC(=O)N1CCC(Oc2cc3c(Nc4ccc(Oc5ccn(-c6cnc(C7CC7)nc6)n5)cc4F)ncnc3cc2OC)CC1` [Example 10, 1-(4-{[4-(4-{[1-(2-cyclopropylpyrimidin-5-yl)-1H-pyrazol-3-yl]oxy}-2-fluoroanilino)-7-methoxyquinazolin-6-yl]oxy}piperidin-1-yl)prop-2-en-1-one], the GI50 in assay [1] is 6170 nM; in assay [2], 212 nM; in assay [3], 11.9 nM; in assay [4], 7.6 nM.

As for `C=CC(=O)N1CCC(Oc2cc3c(Nc4ccc(Oc5nc(-c6cnc(C)c(F)c6)cs5)cc4F)ncnc3cc2OC)CC1` [Example 11, 1-(4-{[4-(2-Fluoro-4-{[4-(5-fluoro-6-methylpyridin-3-yl)-1,3-thiazol-2-yl]oxy}anilino)-7-methoxyquinazolin-6-yl]oxy}piperidin-1-yl)prop-2-en-1-one], the concentration for 50% growth inhibition (GI50) in assay [1] is greater than 10000 nM; in assay [2], 290 nM; in assay [3], 11.3 nM; in assay [4], 12.5 nM.

As to `C=CC(=O)N1CCC(Oc2cc3c(Nc4ccc(Oc5nc(-c6cnc(C)c(Cl)c6)cs5)cc4F)ncnc3cc2OC)CC1` [Example 12, 1-(4-{[4-(4-{[4-(5-Chloro-6-methylpyridin-3-yl)-1,3-thiazol-2-yl]oxy}-2-fluoroanilino)-7-methoxyquinazolin-6-yl]oxy}piperidin-1-yl)prop-2-en-1-one], the GI50 is greater than 10000 nM in assay [1], 646 nM in assay [2], 44.8 nM in assay [3] and 29.8 nM in assay [4].

For the molecule `C=CC(=O)N1CCC(Oc2cc3c(Nc4ccc(Oc5cccc(-c6nnc(C)o6)c5)cc4Cl)ncnc3cc2OC)CC1` [Example 13, 1-{4-[(4-{2-Chloro-4-[3-(5-methyl-1,3,4-oxadiazol-2-yl)phenoxy]anilino}-7-methoxyquinazolin-6-yl)oxy]piperidin-1-yl}prop-2-en-1-one], the GI50 in assay [1] is 8280 nM; in assay [2], 854 nM; in assay [3], 44.5 nM; in assay [4] it was 54.1 nM.

Turning to `C=CC(=O)N1CCC(Oc2cc3c(Nc4ccc(Oc5ccn(-c6cnc(OC)nc6)n5)cc4F)ncnc3cc2OC)CC1` [Example 14, 1-(4-{[4-(2-Fluoro-4-{[1-(2-methoxypyrimidin-5-yl)-1H-pyrazol-3-yl]oxy}anilino)-7-methoxyquinazolin-6-yl]oxy}piperidin-1-yl)prop-2-en-1-one], the 50% growth inhibitory concentration (GI50) was determined as 5950 nM in assay [1], 429 nM in assay [2], 13.7 nM in assay [3] and 13.5 nM in assay [4].

For `C=CC(=O)N1CCC(Oc2cc3c(Nc4ccc(Oc5nc(C(=O)NC(C)(C)C)cs5)cc4F)ncnc3cc2OC)CC1` [Example 15, N-tert-Butyl-2-{3-fluoro-4-[(7-methoxy-6-{[1-(prop-2-enoyl)piperidin-4-yl]oxy}quinazolin-4-yl)amino]phenoxy}-1,3-thiazole-4-carboxamide], the GI50 was greater than 10000 nM in assay [1], 77.3 nM in assay [2], 12.2 nM in assay [3] and 5.5 nM in assay [4].

For `C=CC(=O)N1CCC(Oc2cc3c(Nc4ccc(Oc5nc(-c6cnc(OC)nc6)cs5)cc4F)ncnc3cc2OC)CC1` [Example 16, 1-(4-{[4-(2-Fluoro-4-{[4-(2-methoxypyrimidin-5-yl)-1,3-thiazol-2-yl]oxy}anilino)-7-methoxyquinazolin-6-yl]oxy}piperidin-1-yl)prop-2-en-1-one], the concentration for 50% growth inhibition (GI50) was greater than 10000 nM in assay [1], 320 nM in assay [2], 11.4 nM in assay [3] and 11.3 nM in assay [4].
